Measured values: patent publication US7173014B2, “HIV-specific synthetic oligonucleotides and methods of their use” (priority 1997, dated 2007)

Key:
HIV-1 (IIIB, RF and SK1) = assay: XTT-based anti-HIV assay, laboratory strains of HIV-1; format: cell-based
From the text: The initial experiment performed involved evaluation of Oligos 12, 32, and 41 against three laboratory strains of HIV-1 (IIIB, RF and SK1) and one strain of HIV-2 (ROD) in parallel with the positive control compound ddC in the XTT-based anti-HIV assay. All these oligonucleotides are active against both HIV-1 and HIV-2.
CEM-SS sells (AIDS Research and Reference Reagent Program, NIH) or other established human T cell lines used in these experiments were passaged in T-150 flasks for use in the assay. On the day preceding the assay, the cells were split 1:2 to assure they would be in an exponential growth phase at time of infection. On the day of assay the cells were washed twice with tissue culture medium and resuspended in fresh tissue cultures medium. Total cell and viability counting was performed using a hemacytometer and trypan blue dye exclusion. Cell viability was greater than 95% for the cells to be utilized in the assay. The cells were pelleted and resuspended at 2.5×10^4 cells per ml in tissue culture medium. […]
A pretitered aliquot of virus was removed from the freezer −80° C.) and allowed to thaw slowly to room temperature in a biological safety cabinet. The virus was resuspended and diluted into tissue culture medium such that the amount of virus added to each well in a volume of 50 μl will be the amount determined to give complete cell killing at 6 days post-infection. […]
After 6 days of incubation at 37° C. in a 5% CO2 incubator, the test plates were analyzed by staining with the tetrazolium dye XTT. XTT-tetrazolium is metabolized by the mitochondrial enzymes of metabolically active cells to a soluble formazan product, allowing the rapid quantitative analysis of the inhibition of HIV-induced cell killing by anti-HIV test substances. […]
XTT solution was prepared daily as a stock of 1 mg/ml in PBS. […] Adhesive plate sealers were used in place of the lids, the sealed plate was inverted several times to mix the soluble formazan product and the plate was read spectrophotometrically at A450 nm with a Molecular Devices Vmax plate reader.

[1] = tested on: fresh human peripheral blood mononuclear cells; assay: Toxicity in uninfected and HIV-1 infected fresh human PBMC (XTT, MTT, trypan blue, tritiated thymidine); format: cell-based
Description: In yet another experiment, the toxicity of Oligo 41 was evaluated in uninfected and HIV-1 infected fresh human peripheral blood mononuclear cells, using a variety of quantitative endpoints. Toxicity was evaluated using the tetrazolium dyes XTT or MTT, trypan blue cell and cell viability counting and the incorporation of tritiated thymidine. Two replicate assays were performed. In the first assay, Oligo 41 was used at a high test concentration of 50 μg/ml and toxicity was evaluated on day 7. […] A second assay was performed to further evaluate toxicity at higher compound concentration and with longer exposure to the compound.
For the PBL assay, PHA-P stimulated cells from at least two normal donors were pooled, set in fresh medium at 2×10^6/ml, and plated in the interior wells of a 96 well round bottom microplate at 50 μL/well. Test drug dilutions were prepared at a 2× concentration in microtiter tubes, and 100 μl of each concentration was placed in appropriate wells in a standard format. Fifty microliters of a predetermined dilution of virus stock was placed in each test well. […]
Tritiated thymidine incorporation was measured in parallel cultures at day 7. […] The filters were dried, placed in a scintillation vial with 1 ml of scintillation cocktail and incorporated radioactivity was quantified on a liquid scintillation counter (e.g., Packard Tri-Carb 1900 TR450).

Oligo 41: oligonucleotide having SEQ ID NO:6; sequence not printed, not listed in TABLE 2 (UCGCACCCATCTCTCTCCUUC; chemistry not given here)
activity against HIV-1 (HIV-1 (IIIB, RF and SK1)): active | toxicity ([1]; high test concentration 50 μg/ml, day 7, any quantitative endpoint): No toxicity was detected | toxicity ([1]; high test concentration 150 μg/ml, exposure extended to 14 days): no toxicity was detected
